Assay results as given in patent US20160106107A1, “Compositions and Methods for Treating Microorganism” (priority 2006, published 2016).
Where “and” joins values, the source holds several entries; their conditions need not be identical. Equal values may be shown once. Read-outs that look alike come from different tables or passages of the source.

Tests used:
[1] = system: Pseudomonas syringae pv. phaseolicola HB-9 biofilm
[2] = system: Pseudomonas syringae pv. phaseolicola HB-9 planktonic
[3] = system: Pseudomonas syringae pv. phaseolicola on bean seed surface; details: Experiments 1-3; for Total microbial score: day 6, bacteria + fungi
[4] = system: naturally occurring microorganisms (bacteria and fungi) on bean seed surface; details: for Bacterial reduction / Fungal reduction / Total microbial reduction: vs untreated seeds, Experiments 1-3
Excerpt: They included seeds that would normally be discarded during processing in a commercial seed treatment facility—damaged, discoloured, shrivelled or small seeds. Due to the fact they were not cleaned these seeds still contain soil, dirt, plant debris, etc. Therefore, this seed lot was expected to provide a good model for a high natural microbial challenge, with good diversity of organisms and high microbial recovery expected.
These seeds were processed and cleaned in a commercial seed treatment facility. Processing leads to rejection of small, damaged, and/or discoulored seeds, and thus a healthier overall seed lot. After processing, seeds were washed and cleaned, resulting in a significant reduction in soil, dirt or debris.
Experiments were conducted by treating lots of ‘Othello’ and ‘AC Polaris’ seeds with challenges described in Table 10. Seeds were placed individually onto wells of 12-well microtiter plates and treated for 1 h with silver and/or water. After treatment, seeds were rinsed by dipping into fresh phosphate buffer and subsequently transferred to a new 12-well microtiter plate containing fresh phosphate buffer and sonicated for 15-30 min. Sonication allowed for surviving bacterial and fungal to be removed from the seed surface and recovered into the liquid. After 6 days, each of the wells containing seeds were scored based on both: • the turbidity of the liquid in which they were originally immersed for treatment, on day 6. • seed surface area covered by bacterial and/or fungal colonization, also on day 6.
Six seeds were scored in each experiment and each experiment was repeated 3 times independently. Numbers presented on Tables 11, 13, and 15 represent the mean of 6 scores. […] Total microbial scores (bacteria and fungi together) and are represented as percentage of killing on Tables 12, 14, and 16.

[5] = system: healthy dry bean seed; experiment: Germination of healthy dry bean seed; type: in vivo
[6] = system: Erwinia carotovora subsp. carotovora (Ecc) biofilm; experiment: Ecc biofilm susceptibility, 24 h contact time; type: cell-based; details: for Ecc biofilm cell counts (unlabelled fourth line = mean of 3) / Log reduction of Ecc biofilms / Ecc biofilm cell counts (single replicates): 24 h contact time
Excerpt: Carotovora (Ecc), the Soft Rot of Vegetables Pathogen, in Comparison to Nanocrystalline Silver Powder

[7] = system: Orford (Soybean) seeds; details: for % of seeds germinated: Day 7 (speed of germination); for % germination: Day 14
Excerpt: Germination on blotters was scored at 7- and 14-days. Emergence from soil was scored at 21- and 28-days.
To treat seeds, one hundred seeds were placed in a 50-mL Falcon tube and combined with the treatment solution. Seeds were mixed with the treatment for 5-min by gently rolling and inverting the Falcon tube. Coated seeds were placed in an open Petri plate for 30-min to dry. Seeds were sown 10-per pot, set in a greenhouse, and maintained under standard conditions with mercury lamp lighting supplementing daylight from 3:00 pm to 10:00 pm.
Stir constantly. 5% solution—after the 10% solution has equilibrated for 15-min, add 0.5-mL of 10% solution to 0.5-mL of sterile water. Stir constantly. 2.5% solution—add 0.25-mL of 10% solution to 0.75-mL of sterile water. Stir constantly. 1% solution—add 0.1-mL of 10% solution to 0.9-mL of sterile water. Stir constantly. […] Gently roll and invert the tube for 5 min to evenly coat each seed without causing damage. Remove seeds from tube by pouring carefully into an empty Petri plate. Leave exposed (lid off) and air dry seeds for 30 min.
(1) Germination: Place 50 seeds from each treatment onto 25 individual moistened blotters in large Petri plates. Incubate at room temperature for 2-weeks with or without light. Score germination at 7- and 14-days. (2) Emergence: Sow 50 seeds from each treatment into five pots (10-seeds per pot and five pots per treatment). Place in a greenhouse at 22° C. with ample air circulation. Use mercury lamps to supplement lighting (on at 3:00 pm; off at 10:00 pm) if necessary. For pre-emergent plants, water pots as needed to keep soil moist but not wet. Water emergent plants daily. Score emergence at 21 and 28 days.
After seeds were treated and air-dried, they were sown in potted, non-sterile soil in a greenhouse. Alternatively they were placed on moist blotters in large Petri plates.

[8] = system: dry bean (Phaseolus vulgaris L) seeds, cultivar Othello; experiment: Germination of dry bean seeds with aqueous seed coating under high bacterial load; type: in vivo; details: for # seeds germinated / % germination / Day to 25% germination: high bacterial load
Method: The efficacy of high valency silver ions produced by oxysilver nitrate was evaluated as a seed treatment on diseased dry bean seeds. The oxysilver nitrate was applied as an aqueous seed coating on the germination of dry bean (Phaseolus vulgaris L).
Seeds were placed on blotters in Petri plates, were soaked in an excess of water for 3 days, then drained on day 4. The 3-day period of excess water created a very high bacterial load′ on the germinating seeds and high disease pressure due to pathogenic, saprophytic and soft-rot bacteria. This disease pressure was so extreme that the germination rates for experiments 2-5 were essentially zero due to being overwhelmed by the microbial growth.

[9] = lowest concentration (5000 ppm)
[10] = AC Polaris Inoculated, vs untreated seeds
[11] = AC Polaris seeds, inoculated w/ bacteria, 0.1%, 1 h, scored day 6 on scale 0-5, mean of 6 seeds
[12] = Othello Inoculated, vs untreated seeds

`O=S(=O)([O-])[O-].[Cu+2]` [Copper sulfate] was tested, and the “PspHB-9 Biofilm cell counts” value ([1]; 1250 ppm) was 5.15 log10, the “PspHB-9 Biofilm cell counts” value ([1]; 2900 ppm) was 0 log10 and the “PspHB-9 Biofilm cell counts” value ([1]; 4600 ppm) was 0 log10. For the same molecule, the reduction of biofilms [1, 9] was 17%, the “concentration required to be effective” value ([1]; planktonic cells and biofilms) was 11460 ppm and the “PspHB-9 Planktonic cell counts” value ([2]; 1250 ppm) was 2.95 log10. For the same molecule, the “PspHB-9 Planktonic cell counts” value ([2]; 2900 ppm) was 0 log10, the “PspHB-9 Planktonic cell counts” value ([2]; 4600 ppm) was 0 log10 and the reduction of planktonics [2, 9] was about 48%.

In the case of oxysilver nitrate [High valency silver], the Bacterial reduction [3, 10] is reported as 100% and 96%, the Total microbial reduction [3, 10] is reported as 100% and 96% and the Total microbial score ([3]; AC Polaris seeds, inoculated w/ bacteria, 0.1%, 1 h) is reported as 0. The Total microbial score ([3]; AC Polaris seeds, inoculated w/ bacteria, 0.1%, 1 h, listed as High valency silver nitrate 1) was 0.16, the Bacteria score [3, 11] was 0 and the Fungi score [3, 11] was 0. For the same molecule, the Bacteria score ([3]; AC Polaris seeds, inoculated w/ bacteria, 0.1%, 1 h, scored day 6 on scale 0-5, mean of 6 seeds, listed as High valency silver nitrate 1) was 0.16, the Bacterial reduction [3, 12] was 41% and 78% and 60% and the Fungal reduction [3, 12] was 78% and 75% and 100%. For the same molecule, the Total microbial reduction [3, 12] was 65% and 77% and 79%, the Total microbial score ([3]; Othello seeds, inoculated w/ bacteria, 0.1%, 1 h) was 1.83 and 1.32 and 1.66 and the Bacterial reduction ([4]; AC Polaris Non-inoculated) was 67% and 90% and 100%. The Fungal reduction ([4]; AC Polaris Non-inoculated) was 100% and 62%, the Total microbial reduction ([4]; AC Polaris Non-inoculated) was 81% and 78% and 100% and the Bacterial reduction ([4]; Othello Non-inoculated) was 80% and 62% and 88%. For the same molecule, the Fungal reduction ([4]; Othello Non-inoculated) was 70% and 100% and 74%, the Total microbial reduction ([4]; Othello Non-inoculated) was 75% and 86% and 81% and the “bactericidal and fungicidal efficacy” value ([4]; various bacterial and fungal species associated with seed surfaces, 3 independent replications) was “good bactericidal and fungicidal efficacy”. For the same molecule, the “# seeds germinated” value ([5]; 0.1%) was 84, the “% germination” value ([5]; 0.1%) was 84% and the “Day to 50% germination” value ([5]; 0.1%) was 6.5 days. For the same molecule, the “Day to 100% germination” value ([5]; 0.1%) was 9.0 days, the “# seeds germinated” value ([5]; 0.5%) was 86 and the “% germination” value ([5]; 0.5%) was 86%. For the same molecule, the “Day to 50% germination” value ([5]; 0.5%) was 6.0 days, the “Day to 100% germination” value ([5]; 0.5%) was 9.0 days and the “# seeds germinated” value ([5]; 1%) was 89. For the same molecule, the “% germination” value ([5]; 1%) was 89%, the “Day to 100% germination” value ([5]; 1%) was 9.0 days and the “# seeds germinated” value ([5]; […]) was 81. The “% germination” value ([5]; […]) was 81%, the “Day to 100% germination” value ([5]; […]) was 9.0 days and the “germination compared with water control or Apron Maxx RTA” value ([5]; healthy dry bean seed) was “more rapid germination and higher percent germination rate”. The “PspHB-9 Biofilm cell counts” value ([1]; 100 ppm) was 0 log10, the “PspHB-9 Biofilm cell counts” value ([1]; 500 ppm) was 0 log10 and the “PspHB-9 Biofilm cell counts” value ([1]; 1000 ppm) was 0 log10. For the same molecule, the eradication of biofilm ([1]; at the lowest concentration) was 100%, the “PspHB-9 Planktonic cell counts” value ([2]; 100 ppm) was 0 log10 and the “PspHB-9 Planktonic cell counts” value ([2]; 500 ppm) was 0 log10. The “PspHB-9 Planktonic cell counts” value ([2]; 1000 ppm) was 0 log10, the eradication of planktonic ([2]; at the lowest concentration) was 100% and the “Ecc biofilm cell counts (unlabelled fourth line = mean of 3)” value ([6]; 50 ppm) was 1.53 log10. For the same molecule, the “Log reduction of Ecc biofilms” value ([6]; 50 ppm) was 2.23, the “Ecc biofilm cell counts (single replicates)” value ([6]; 50 ppm, listed as Oxy) was 1.60 log10 and 1.00 log10 and 2.00 log10 and the “Ecc biofilm cell counts (unlabelled fourth line = mean of 3)” value ([6]; 100 ppm) was 0.65 log10. The “Log reduction of Ecc biofilms” value ([6]; 100 ppm) was 3.11, the “Ecc biofilm cell counts (single replicates)” value ([6]; 100 ppm, listed as Oxy) was 0 log10 (2×) and 1.95 log10 and the “Ecc biofilm cell counts (unlabelled fourth line = mean of 3)” value ([6]; 200 ppm) was 0.70 log10. For the same molecule, the “Log reduction of Ecc biofilms” value ([6]; 200 ppm) was 3.06, the “Ecc biofilm cell counts (single replicates)” value ([6]; 200 ppm, listed as Oxy) was 0 log10 (2×) and 2.11 log10 and the “Ecc biofilm cell counts (single replicates)” value ([6]; 500 ppm) was 0 log10. For the same molecule, the “Ecc biofilm cell counts (unlabelled fourth line = mean of 3)” value ([6]; 500 ppm) was 0.00 log10, the “Log reduction of Ecc biofilms” value ([6]; 500 ppm) was 3.76 and the “anti-microbial efficacy compared with nanocrystalline silver” value ([6]; plant pathogenic Erwinia spp.) was “as efficacious as nanocrystalline silver”. For the same molecule, the “% of seeds germinated” value ([7]; 0.1%) was 28%, the “% germination” value ([7]; 0.1%) was 50% and the “% of seeds germinated” value ([7]; 0.5%) was 34.5%. For the same molecule, the “% germination” value ([7]; 0.5%) was 58%, the “% of seeds germinated” value ([7]; 1%) was 59.4% and the “% germination” value ([7]; 1%) was 64%. The “germination rate higher than water” value ([7]; 1%, after 14 days) was 34%, the “% of seeds germinated” value ([7]; […]) was 29.6% and the “% germination” value ([7]; […]) was 54%. The “bacterial growth on treated seeds” value ([7]; soybean seeds and blotters) was “did not appear to have major bacterial growth”, the “# seeds germinated” value ([8]; 0.1%) was 53 and the “% germination” value ([8]; 0.1%) was 35.3%. The “Day to 25% germination” value ([8]; 0.1%) was 5 days, the “# seeds germinated” value ([8]; 0.5%) was 53 and the “% germination” value ([8]; 0.5%) was 35.3%. The “Day to 25% germination” value ([8]; 0.5%) was 5 days, the “germination higher than Apron Maxx RTA” value ([8]; 1%, by day 10) was 54% and the “increase of germination compared with the negative control (sterile water)” value ([8]; 1%, by day 10) was 34.7%. The “# seeds germinated” value ([8]; 1%) was 91, the “% germination” value ([8]; 1%) was 60.7% and the “Day to 25% germination” value ([8]; 1%) was 5 days. The “# seeds germinated” value ([8]; […]) was 51, the “% germination” value ([8]; […]) was 43.0% and the “Day to 25% germination” value ([8]; […]) was 5 days.
